The text below walks through data of ChEMBL document CHEMBL1154198, “Chemical genetics of Plasmodium falciparum” (Nature, 2010).

Test [1] concerns Plasmodium falciparum. In words: ST_JUDE: Plasmodium falciparum 3D7 EC50 (uM) as measured by SYBR green dye. The format is functional, organism-based.
The subject of test [2] is Plasmodium falciparum. In words: ST_JUDE: Plasmodium falciparum K1 EC50 (uM) as measured by SYBR green dye. The format is functional, organism-based.

Consider `Cc1ccccc1C(=O)N(Cc1cccnc1)c1nc2c(F)cccc2s1`, for which the EC50 in test [1] was 4.67 µM; in test [2], above 15 µM.
Turning to `CCc1nc2sc(C(c3cccc(F)c3)N3CCN(c4ccc(OC)cc4)CC3)c(O)n2n1` (stereo not given), the EC50 in test [1] and in test [2] was above 15 µM throughout.
In the case of `COc1ccccc1N1CCN(C(CNS(=O)(=O)c2ccc(Cl)cc2)c2cccnc2)CC1` (stereo not given), the figures for the EC50 in test [1] and in test [2] were above 15 µM and 4.64 µM, respectively.
The like results for `N#Cc1cccc(NC(=O)C2c3ccccc3C(=O)N(C3CCCC3)C2c2cccs2)c1` (stereo not given) were, in that order, 0.188 µM and 0.253 µM.
For `Nc1ccc(-c2nc3cc(Cc4ccc5[nH]c(-c6ccc(N)cc6)nc5c4)ccc3[nH]2)cc1`, the results for the EC50 in test [1] and in test [2] were 1.08 µM and 1.13 µM, respectively.
As for `CCOc1ccc(Nc2cc(C)nc(-n3nc(C)cc3C)n2)cc1`, the EC50 in test [1] turned out to be 5.02 µM; in test [2], 4.99 µM.
As to `CC(C)CN1C(=O)c2ccccc2C(C(=O)Nc2ccc(Cl)cn2)C1c1cccs1` (stereo not given), the EC50 in test [1] worked out at 3.44 µM; in test [2], 4.78 µM.
In the case of `CCN1CCN(CCNC(=O)c2ccc(/C=C3/Sc4ccccc4N(Cc4cccc(Cl)c4)C3=O)cc2)CC1`, the EC50 in test [1] and in test [2] was above 15 µM each time.
In the case of `O=S(=O)(/N=C(\Nc1ccc(Br)cc1)c1ccccc1)c1ccccc1`, the EC50 in test [1] and in test [2] was above 15 µM throughout.
Consider `Oc1cccnc1NC(c1ccc(Cl)cc1)c1ccc2cccnc2c1O` (stereo not given), for which the EC50 was determined as 3.76 µM in test [1] and 5.59 µM in test [2].
In the case of `COc1ccc(CC(=O)N2CC(=O)Nc3ccc(Cl)cc3C2c2ccc(F)cc2)cc1` (stereo not given), the concentration for a half-maximal effect (EC50) in test [1] and in test [2] was above 15 µM in each case.
`Cc1nc2nc(NCc3cccc(Br)c3)nn2c(O)c1C`: the EC50 in test [1] and in test [2] was above 15 µM each time.
Take `CCc1cccc(NC(=O)c2cc3c(-c4ccc(OC)c(OC)c4)nn(C)c3s2)c1`: the EC50 in test [1] and in test [2] was above 15 µM in each case.
Turning to `CCN(CC)c1cc(C)c2cc(NC(=O)c3ccc(F)cc3)ccc2n1`, the EC50 in test [1] and in test [2] was above 15 µM in each case.
For the compound `CCCCN(C)CCNC(=O)c1cc2c(-c3ccccc3F)nn(C)c2s1`, the EC50 in test [1] is 1.62 µM; in test [2] it was above 15 µM.
With `O=C1C(Nc2ccc(I)cc2)=C(N2CCOCC2)C(=O)c2ccccc21`, the EC50 came out at 0.256 µM in test [1] and 0.181 µM in test [2].
In the case of `COc1cccc(C(=O)Nc2ccc(-c3nnc(-c4ccco4)o3)cc2)c1`, the EC50 in test [1] and in test [2] was above 15 µM in each case.
Take `Oc1cccc(/C=C/c2ccc3cccc(O)c3n2)c1`: the half-maximal effective concentration (EC50) in test [1] is above 15 µM; in test [2], 5.88 µM.
The like results for `Cc1cc(C)c2sc(NNC(=O)c3ccc(S(=O)(=O)N(C)C)cc3)nc2c1` were, in that order, 5.94 µM and 4.89 µM.
The like results for `C=CCn1c(=N)n(CC(O)COc2cccc(C)c2)c2ccccc21` (stereo not given) were, in that order, 7.13 µM and above 15 µM.
Regarding `CCOC(=O)C1=C(c2ccccc2)N=c2s/c(=C\c3cccc(O)c3)c(=O)n2C1c1cccc(OC)c1OC` (stereo not given), the EC50 in test [1] was 3.26 µM; in test [2], 2.18 µM.
As to `C#CCOc1ccc(C2C(C#N)=C(N)Oc3cc(O)ccc32)cc1OCC` (stereo not given), the EC50 in test [1] is above 15 µM; in test [2] it was 10.2 µM.
Turning to `O=C(NC(NC(=S)Nc1ccc(Cl)cc1)C(Cl)(Cl)Cl)c1ccccc1F` (stereo not given), the EC50 was 2.73 µM in test [1] and 4.07 µM in test [2].
As for `CCCCc1ccc(NS(=O)(=O)c2cc3c4c(c2)CCN4C(=O)CC3)cc1`, the EC50 in test [1] and in test [2] was above 15 µM in each case.
`COc1ccc(-c2cnnc(N/N=C/c3ccc(O)cc3)n2)cc1`: the EC50 in test [1] and in test [2] was above 15 µM in each case.
With `CCn1c2c(c(=N)c3c1CCC3)CCCC2`, the values for the concentration for a half-maximal effect (EC50) in test [1] and in test [2] were 3.12 µM and 6.57 µM, respectively.
For the compound `CCC1CCCCN1S(=O)(=O)c1ccc(C(=O)NNc2nc3c(C)cccc3s2)cc1` (stereo not given), the EC50 in test [1] and in test [2] was above 15 µM in each case.
`Cc1cccn2c(=O)nc(SCc3cccc(F)c3)nc12`: the EC50 in test [1] is above 15 µM; in test [2], 10.1 µM.
The like results for `CSCCC(=O)N(C)C(Cc1ccc(F)cc1)C1CCN(C(=O)c2cc3ccccc3n2C)CC1` (stereo not given) were, in that order, above 15 µM and above 15 µM.
Take `CCCNC(=O)C1CN1Cc1ccc(OC)cc1` (stereo not given): the values for the EC50 in test [1] and in test [2] were 6.81 µM and 6.92 µM, respectively.
Turning to `COC(CNC(=O)c1ccc(-n2c(C)cc3c2CCCC3)cc1)OC`, the EC50 in test [1] and in test [2] was above 15 µM each time.
`COc1ccc2c(ccc(/C=C3\C=CC=CN3C)[n+]2C)c1`: the EC50 worked out at 1.17 µM in test [1] and 0.842 µM in test [2].
Turning to `OC(CN1CCN(Cc2ccccc2)CC1)Cn1c2ccccc2c2ccccc21` (stereo not given), the EC50 worked out at 2.64 µM in test [1] and 1.15 µM in test [2].
On to `CCOc1ccc(/C=C(/C#N)c2nc3ccccc3[nH]2)cc1OC`, for which the values for the EC50 in test [1] and in test [2] were 3.39 µM and 4.68 µM, respectively.
For `COc1ccccc1[N+]1=C2CCCCN2C(O)(c2ccc(Cl)cc2)C1` (stereo not given), the EC50 in test [1] was above 15 µM; in test [2], 7.71 µM.
As for `Cc1ccc(N2C(=O)CC(Sc3nccc(C)n3)C2=O)cc1` (stereo not given), the EC50 in test [1] and in test [2] was above 15 µM throughout.
With `Oc1ccccc1Nc1nc(-c2cccnc2)nc2ccccc12`, the results for the EC50 in test [1] and in test [2] were above 15 µM and 2.1 µM, respectively.
As to `COc1cccc(-c2nn(C)c3sc(C(=O)NCCN4CCN(Cc5ccccc5)CC4)cc23)c1`, the concentration giving a half-maximal response (EC50) in test [1] and in test [2] was above 15 µM throughout.
As for `COc1ccc(CN2CCN(CC(C)(C)C)C(CCO)C2)c(O)c1` (stereo not given), the results for the EC50 in test [1] and in test [2] were 7.57 µM and 3.73 µM, respectively.
The corresponding values for `CCOC(=O)C1=C(C)N=c2s/c(=C\c3cc(Cl)ccc3O)c(=O)n2C1c1ccccc1` (stereo not given) are above 15 µM and above 15 µM.
For `COc1ccc(C2CC(=O)C3=C(C2)NC(=O)CC3c2ccc(O)cc2)cc1OC` (stereo not given), the values for the EC50 in test [1] and in test [2] were 1.66 µM and 0.977 µM, respectively.
Take `Oc1c(C(Nc2ccccn2)c2cccc(Oc3ccccc3)c2)ccc2cccnc12` (stereo not given): the EC50 in test [1] was determined as 2.92 µM; in test [2], 2.76 µM.
Turning to `CCN(CC)CCCNc1nc2cc(OC)c(OC)cc2c2nc(-c3ccccc3)nn12`, the EC50 in test [1] and in test [2] was above 15 µM in each case.
Regarding `CCOC(=O)c1ccc(NC(=O)CSc2nn3c(=O)c(C)nnc3s2)cc1`, the EC50 in test [1] and in test [2] was above 15 µM throughout.
Take `CCOC(=O)C(NC(C)=O)(Nc1ccc(S(=O)(=O)Nc2cc(C)on2)cc1)C(F)(F)F` (stereo not given): the EC50 in test [1] is 2.04 µM; in test [2], 4.56 µM.
The like results for `Cc1ccc(CN2c3ccccc3C(O)=C(/C=N/c3ccc4c(c3)N3CCN=C3S4)S2(=O)=O)cc1` were, in that order, 2.18 µM and above 15 µM.
For `COc1ccccc1N1CCN(Cc2cc(Cl)c3cccnc3c2O)CC1`, the EC50 worked out at 3.34 µM in test [1] and 2.36 µM in test [2].
Consider `CCOc1ccc(NC(=O)CSc2nncc(O)n2)cc1`, for which the EC50 in test [1] is 0.734 µM; in test [2], 0.994 µM.
`CC(C)CN1CCC(C(=O)Nc2ccc(-c3nc4ccccc4[nH]3)cc2)CC1`: the EC50 in test [1] and in test [2] was above 15 µM each time.
Consider `Cc1cc(N2CCN(C)CC2)nc2ccc(NC(=O)c3cccc(N(C)C)c3)cc12`, for which the EC50 in test [1] stood at 0.62 µM; in test [2], 6.32 µM.
Regarding `COc1ccc(OCC(O)CN2CCN(c3ccc(OC)cc3)CC2)cc1` (stereo not given), the EC50 in test [1] and in test [2] was above 15 µM each time.
`CCN1CCN(CCCNC(=O)c2cc3cc4ccc(Cl)cc4nc3o2)CC1`: the EC50 in test [1] is 4.54 µM; in test [2], above 15 µM.
The corresponding values for `O=C(Nc1cc(OCC(F)(F)F)cc(OCC(F)(F)C(F)F)c1)c1cccnc1` are 3.84 µM and 4.42 µM.
On to `CC(C)(C)c1ccc(C(=O)Nc2nc3c(s2)CN(Cc2ccccc2)CC3)cc1`, for which the half-maximal effective concentration (EC50) in test [1] and in test [2] was above 15 µM in each case.
In the case of `CCN(CC)S(=O)(=O)c1ccc(C(=O)NNc2nc3c(OC)ccc(OC)c3s2)cc1`, the results for the EC50 in test [1] and in test [2] were above 15 µM and 3.93 µM, respectively.
Consider `CN(C)c1ccc(-c2n(C)c3ccccc3[n+]2C)cc1`, for which the EC50 is above 15 µM in test [1] and 4.36 µM in test [2].
With `CCc1c(C)nc(-n2nc(C)cc2NC(=O)c2ccccc2F)nc1O`, the EC50 in test [1] and in test [2] was above 15 µM each time.
Take `CCCOC(=O)c1ccc(NC(=O)NC2CCCCC2)cc1`: the EC50 in test [1] and in test [2] was above 15 µM throughout.
On to `Cc1ccn2c(Nc3ccccc3)c(-c3ccccn3)nc2c1`, for which the EC50 in test [1] and in test [2] was above 15 µM each time.
In the case of `OCCNc1nc(Nc2ccc(Cl)cc2)nc2ccccc12`, the EC50 in test [1] is 1.02 µM; in test [2], 3.2 µM.
Regarding `O=C(NCc1ccccc1)C1CCC(Cn2c(=O)c3ccccc3n(Cc3cccc(F)c3)c2=O)CC1` (stereo not given), the EC50 in test [1] and in test [2] was above 15 µM throughout.
Turning to `CCc1ccc(S(=O)(=O)/N=C2/C=C(Sc3nc[nH]n3)C(=O)c3ccccc32)cc1`, the EC50 amounted to 4.79 µM in test [1] and 6.99 µM in test [2].
With `Cc1ccc2nc3c(cc(C(=O)NC(C)c4ccccc4)c(=N)n3CC3CCCO3)c(=O)n2c1` (stereo not given), the EC50 in test [1] and in test [2] was above 15 µM each time.
Turning to `CC(C)C(=O)N1CCN(c2ccc([N+](=O)[O-])c(NC3CC3)c2)CC1`, the EC50 worked out at 4.46 µM in test [1] and 6.77 µM in test [2].
On to `CCCCN(CCCC)C(=O)Cn1ccc(=N)c2ccccc21`, for which the EC50 in test [1] and in test [2] was above 15 µM in each case.
Turning to `CCOC(=O)C1=C(C)N=c2s/c(=C\c3ccc(O)cc3)c(=O)n2C1c1ccc(OC)c(OCC)c1` (stereo not given), the values for the EC50 in test [1] and in test [2] were 0.77 µM and above 15 µM, respectively.
The corresponding values for `CCOC(=O)c1cnc2ccc(OC)cc2c1NCCCN1CCOCC1` are 5.94 µM and 4.38 µM.
Take `CCC1=Nc2cc(C(=O)NCc3ccco3)ccc2Sc2ccc(Cl)cc21`: the EC50 was determined as 3.74 µM in test [1] and 6.27 µM in test [2].
Turning to `Oc1c(CN2CCN(c3cccc(Cl)c3)CC2)cc(Br)c2cccnc12`, the EC50 is 0.88 µM in test [1] and above 15 µM in test [2].
The like results for `Cc1cccc(C(=O)ONC(=N)Cc2cccc3ccccc23)c1` were, in that order, 4.7 µM and 2.63 µM.

The EC50 is the concentration giving half of the maximal effect. A high value points to a need for much substance.
